Experimental data as given in PubChem BioAssay AID248 (DTP/NCI, 2004).
“And” between values parts separate entries of the source, which are not always exact repeats. Identical values can stand only once. Toxic doses and inconclusive results are not listed. Rule as the data show it: active = T/C of 150% or more; inactive = T/C below 125%. Peptide text beside a SMILES is read from it. * marks the point of attachment. Cbz = O=C(OCc1ccccc1)*; Bn = c1ccc(C*)cc1

Tested on: L1210 leukemia ip in BDF1 mice, survival T/C
Assay: NCI In Vivo Anticancer Drug Screen. Data for tumor model L1210 Leukemia (intraperitoneal) in B6D2F1 (BDF1) mice
Details: endpoint: mean survival time, higher = longer survival
In short: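 Mice bearing the transplanted tumor received compound or vehicle. Survival of the treated group was divided by that of the vehicle-treated control group to give the ratio.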

[1] = dose: 100.0 mg/kg/injection, schedule: Q01DX001 (ip), vehicle: saline
[2] = dose: 200.0 mg/kg/injection, schedule: Q01DX001 (ip), vehicle: saline
[3] = dose: 300.0 mg/kg/injection, schedule: Q01DX001 (ip), vehicle: saline
[4] = dose: 400.0 mg/kg/injection, schedule: Q01DX001 (ip), vehicle: saline
[5] = dose: 100.0 mg/kg/injection, schedule: Q04DX002 (ip), vehicle: Klucel (hydroxypropylcellulose) (HPC)
[6] = dose: 200.0 mg/kg/injection, schedule: Q04DX002 (ip), vehicle: Klucel (hydroxypropylcellulose) (HPC)
[7] = dose: 400.0 mg/kg/injection, schedule: Q04DX002 (ip), vehicle: Klucel (hydroxypropylcellulose) (HPC)
[8] = dose: 100.0 mg/kg/injection, schedule: Q04DX003 (ip), vehicle: saline with Tween-80
[9] = dose: 200.0 mg/kg/injection, schedule: Q04DX003 (ip), vehicle: saline with Tween-80
[10] = dose: 400.0 mg/kg/injection, schedule: Q04DX003 (ip), vehicle: saline with Tween-80
[11] = dose: 100.0 mg/kg/injection, schedule: Q01DX001 (ip), vehicle: carboxymethylcellulose (CMC)
[12] = dose: 200.0 mg/kg/injection, schedule: Q01DX001 (ip), vehicle: carboxymethylcellulose (CMC)
[13] = dose: 400.0 mg/kg/injection, schedule: Q01DX001 (ip), vehicle: carboxymethylcellulose (CMC)
[14] = dose: 50.0 mg/kg/injection, schedule: Q04DX002 (ip), vehicle: Klucel (hydroxypropylcellulose) (HPC)
[15] = dose: 100.0 mg/kg/injection, schedule: Q01DX009 (ip), vehicle: gum acacia
[16] = dose: 100.0 mg/kg/injection, schedule: Q04DX003 (ip), vehicle: gum acacia
[17] = dose: 200.0 mg/kg/injection, schedule: Q04DX003 (ip), vehicle: gum acacia
[18] = dose: 400.0 mg/kg/injection, schedule: Q04DX003 (ip), vehicle: gum acacia

Measured: T/C

CN1C2CCC1CN(Cc1ccccc1)C2
inactive: dose: 12.5 mg/kg/injection, schedule: Q01DX009 (ip), vehicle: saline 103 % of control | dose: 12.5 mg/kg/injection, schedule: Q04DX003 (ip), vehicle: saline 97 % of control | dose: 25.0 mg/kg/injection, schedule: Q01DX009 (ip), vehicle: saline 101 % of control | dose: 25.0 mg/kg/injection, schedule: Q04DX003 (ip), vehicle: saline 101 % of control | dose: 50.0 mg/kg/injection, schedule: Q01DX009 (ip), vehicle: saline 101 % of control | dose: 50.0 mg/kg/injection, schedule: Q04DX003 (ip), vehicle: saline 98 % of control

ClCc1c2ccccc2c(CCl)c2ccccc12
inactive: dose: 0.9 mg/kg/injection, schedule: Q01DX009 (ip), vehicle: saline with Tween-80 118 % of control | dose: 1.35 mg/kg/injection, schedule: Q01DX009 (ip), vehicle: saline with Tween-80 120 % of control | dose: 2.05 mg/kg/injection, schedule: Q01DX009 (ip), vehicle: saline with Tween-80 111 % of control | dose: 2.08 mg/kg/injection, schedule: Q01DX009 (ip), vehicle: saline 120 % of control | dose: 3.12 mg/kg/injection, schedule: Q01DX009 (ip), vehicle: saline 111 % of control | dose: 4.0 mg/kg/injection, schedule: Q01DX009 (ip), vehicle: carboxymethylcellulose (CMC) 110 % of control | dose: 4.68 mg/kg/injection, schedule: Q01DX009 (ip), vehicle: saline with Tween-80 94 % of control | dose: 4.68 mg/kg/injection, schedule: Q01DX009 (ip), vehicle: saline 98 % of control | dose: 5.0 mg/kg/injection, schedule: Q01DX009 (ip), vehicle: carboxymethylcellulose (CMC) 121 % of control | dose: 6.2 mg/kg/injection, schedule: Q01DX015 (ip), vehicle: carboxymethylcellulose (CMC) 112 % of control | dose: 7.0 mg/kg/injection, schedule: Q01DX001 (ip), vehicle: saline 114 % of control | dose: 9.3 mg/kg/injection, schedule: Q01DX015 (ip), vehicle: carboxymethylcellulose (CMC) 106 % of control | dose: 14.0 mg/kg/injection, schedule: Q01DX001 (ip), vehicle: saline 104 % of control | dose: 14.0 mg/kg/injection, schedule: Q01DX015 (ip), vehicle: carboxymethylcellulose (CMC) 104 % of control | dose: 16.0 mg/kg/injection, schedule: Q01DX009 (ip), vehicle: carboxymethylcellulose (CMC) 119 % of control | dose: 20.0 mg/kg/injection, schedule: Q01DX009 (ip), vehicle: carboxymethylcellulose (CMC) 123 % of control | dose: 28.0 mg/kg/injection, schedule: Q01DX001 (ip), vehicle: saline 104 % of control | dose: 56.0 mg/kg/injection, schedule: Q01DX001 (ip), vehicle: saline 109 % of control | dose: 88.8 mg/kg/injection, schedule: Q01DX001 (ip), vehicle: saline 113 % of control | [1] 118 % of control | dose: 112.0 mg/kg/injection, schedule: Q01DX001 (ip), vehicle: saline 109 % of control | [2] 109 % of control | [3] 109 % of control | [4] 92 % of control

COC(=O)C(=O)CC(=O)c1ccc([N+](=O)[O-])cc1
inactive: [5] 95 % of control | [6] 95 % of control | [7] 103 % of control

O=c1[nH]c(C(F)(F)F)c(Cc2ccccc2)c(=O)[nH]1
inactive: dose: 100.0 mg/kg/injection, schedule: Q01DX001 (ip), vehicle: gum acacia 95 % of control | dose: 200.0 mg/kg/injection, schedule: Q01DX001 (ip), vehicle: gum acacia 107 % of control

Cn1nnnc1/C(=C/c1ccccc1)C(=O)O
inactive: [8] 95 % of control | [9] 95 % of control | [10] 90 % of control

O=C(Nc1cccc(CSc2nc3nc[nH]c(=O)c3[nH]2)c1)Oc1ccccc1
inactive: dose: 50.0 mg/kg/injection, schedule: Q01DX001 (ip), vehicle: Klucel (hydroxypropylcellulose) (HPC) 96 % of control | dose: 100.0 mg/kg/injection, schedule: Q01DX001 (ip), vehicle: Klucel (hydroxypropylcellulose) (HPC) 91 % of control | dose: 200.0 mg/kg/injection, schedule: Q01DX001 (ip), vehicle: Klucel (hydroxypropylcellulose) (HPC) 98 % of control

O=CN/N=C/c1cccc([N+](=O)[O-])c1
inactive: dose: 75.0 mg/kg/injection, schedule: Q01DX001 (ip), vehicle: saline 95 % of control | dose: 150.0 mg/kg/injection, schedule: Q01DX001 (ip), vehicle: saline 95 % of control | [3] 92 % of control

S=C1SCC(c2ccccc2)S1 (stereo not given)
inactive: [8] 92 % of control | [9] 92 % of control | [10] 89 % of control

CN(C)C(=O)/C=C/C(=O)N(C)C
inactive: dose: 100.0 mg/kg/injection, schedule: Q04DX003 (ip), vehicle: saline 103 % of control | dose: 200.0 mg/kg/injection, schedule: Q04DX003 (ip), vehicle: saline 103 % of control | dose: 400.0 mg/kg/injection, schedule: Q04DX003 (ip), vehicle: saline 108 % of control

CS(=O)(=O)n1c(C(O)c2ccccc2)nc2ccccc21 (stereo not given)
inactive: [11] 100 % of control | [12] 94 % of control | [13] 89 % of control

Cc1ccc(-n2cccc2)cc1
inactive: [14] 90 % of control | [5] 93 % of control and 90 % of control | [6] 90 % of control | [7] 106 % of control

COC(=O)/C=C/N(Cc1ccccc1)Cc1ccccc1
inactive: dose: 100.0 mg/kg/injection, schedule: Q01DX009 (ip), vehicle: saline with Tween-80 103 % of control | dose: 200.0 mg/kg/injection, schedule: Q01DX009 (ip), vehicle: saline with Tween-80 95 % of control | dose: 400.0 mg/kg/injection, schedule: Q01DX009 (ip), vehicle: saline with Tween-80 91 % of control

CC(C)C(NC(=O)C(CSCc1ccccc1)NC(=O)OCc1ccccc1)C(N)=O (stereo not given) (Cbz-Cys(Bn)-Val-NH2; configuration not given here)
inactive: dose: 100.0 mg/kg/injection, schedule: Q01DX009 (ip), vehicle: Klucel (hydroxypropylcellulose) (HPC) 87 % of control | dose: 200.0 mg/kg/injection, schedule: Q01DX009 (ip), vehicle: Klucel (hydroxypropylcellulose) (HPC) 89 % of control

Cc1ccc(S(=O)(=O)OCC2CC=CCC2COS(=O)(=O)c2ccc(C)cc2)cc1 (stereo not given)
inactive: [1] 88 % of control | [2] 92 % of control | [4] 88 % of control

COc1cccc(C2NC(=S)N3C(c4cccc(OC)c4)NC(=S)N23)c1 (stereo not given)
inactive: [15] 108 % of control | [16] 88 % of control | dose: 200.0 mg/kg/injection, schedule: Q01DX009 (ip), vehicle: gum acacia 99 % of control | [17] 100 % of control | dose: 400.0 mg/kg/injection, schedule: Q01DX009 (ip), vehicle: gum acacia 93 % of control | [18] 95 % of control

C=C(C)CN1C(=O)c2ccccc2C1=O
inactive: dose: 25.0 mg/kg/injection, schedule: Q01DX009 (ip), vehicle: gum acacia 94 % of control | dose: 50.0 mg/kg/injection, schedule: Q01DX009 (ip), vehicle: gum acacia 96 % of control | [15] 88 % of control | [16] 108 % of control | [17] 97 % of control | [18] 93 % of control

NC(CCC(=O)O)C(=O)NC(CC(=O)O)C(=O)O (stereo not drawn) (H-Glu-Asp-OH; configuration not given here)
inactive: dose: 12.5 mg/kg/injection, schedule: Q04DX002 (ip), vehicle: Klucel (hydroxypropylcellulose) (HPC) 90 % of control | dose: 25.0 mg/kg/injection, schedule: Q04DX002 (ip), vehicle: Klucel (hydroxypropylcellulose) (HPC) 105 % of control | [14] 98 % of control | [5] 94 % of control

CN1CCN(C)P1N1CCCC1
inactive: [1] 89 % of control | [2] 95 % of control | [4] 93 % of control

Nc1nnc(Sc2n[nH]c(=O)[nH]c2=O)s1
inactive: [11] 98 % of control | [12] 102 % of control | [13] 105 % of control

CC(=O)Nc1cc(NC(C)=O)c2nc(CN(C)c3ccc(C(=O)O)cc3)cnc2n1
inactive: dose: 100.0 mg/kg/injection, schedule: Q01DX001 (ip), vehicle: other 101 % of control | dose: 200.0 mg/kg/injection, schedule: Q01DX001 (ip), vehicle: other 98 % of control | dose: 400.0 mg/kg/injection, schedule: Q01DX001 (ip), vehicle: other 97 % of control
